Measured values taken from patent publication US20040009168A1, “Multidose antibody formulation” (priority 2002, published 2004).
“Also recorded” adds a separate entry of the source.

Assays:
[1] = tested on: formulated humanized monoclonal antibody; test: Visual analysis of the antibody formulation with preservative; assay type: physicochemical; conditions: for Visual analysis: after 2 days at 50° C.
Procedure: (§1) The compatibility of six parenteral preservatives (benzyl alcohol, chlorobutanol, methyl paraben, propyl paraben, phenol, and m-cresol) with the formulated humanized monoclonal antibody was tested. The preservatives were added to the formulated antibody based on their commonly used concentration ranges in marketed multidose products (3). Protein aggregation was suspected to be the primary degradation pathway. Preliminary evaluation of the preservatives was done initially by DSC and after 2 days of incubation at 50° C. by visual inspection for appearance and by SEC for soluble aggregates.

[2] = tested on: formulated humanized monoclonal antibody; test: Size-exclusion chromatography (SEC), monomer content; assay type: physicochemical; conditions: for Monomer (%): 1 week at 45 ° C.; for Percent monomer (by SEC): after 2 days at 50° C.
Procedure: as §1
(§2) Because of the results seen in the preliminary evaluation, additional analyses were done using lower concentrations of the preservatives.
The monomer content, soluble aggregates, and clips due to hydrolysis were monitored by size-exclusion chromatography. The analytical system employed consisted of an HPLC pump (Perkin Elmer, Series 410) and an autosampler (Perkin Elmer, ISS 2000) connected to a diode array detector (Perkin Elmer, 235C). Two size-exclusion chromatography columns (Tosohaas TSK-Gel, G3000SWXL,), connected in tandem, were used for sample separation. The composition of the mobile phase was 200 mM KPO4, 150 mM NaCl, pH 6.9. Samples were diluted to 1 mg/mL and a sample volume of 40 μL was injected for analysis. The flow rate was 1.0 mL/min, and detection was at 220 and 280 nm.

[3] = tested on: formulated humanized monoclonal antibody; test: Differential scanning calorimetry (DSC), denaturation temperature; assay type: physicochemical; conditions: initial time point, t0
Procedure: as §1
A decrease in the denaturation temperature reflects a destabilizing effect of the preservative on formulation stability. The denaturation temperature (Tm) of the sample was measured using the Pyris 1 differential scanning calorimeter (Perkin Elmer). A sample volume of 50 μL was taken from a 10 mg/mL protein sample and sealed in a stainless steel pan. The sample was held at 32° C. for 2 minutes, and heated to 100° C. at the rate of 10° C./min.

[4] = tested on: antigen expressed on human T cells; test: Potency testing by FACS binding assay (flow cytometry); conditions: 1 week at 45 ° C.
Procedure: as §2
The biological activity (potency) of the protein was measured by flow cytometry, based on the binding of the antibody antigen expressed on human T cells.

[5] = tested on: Escherichia coli, Staphylococcus aureus, Pseudomonas aeruginosa; test: Preservative screening test (modified USP/EP preservative efficacy test), bacteria; assay type: cell-based; conditions: for b-coefficient, Bacterial LR: ± 95% confidence limits; for Bacterial × 10^4 (cfu/mL): 1 week at 25 ° C., total bacterial count 8.78 × 10^4 cfu/mL
Procedure: (§3) The efficacy of the preservative against various microorganisms was measured using a modified USP/EP preservative efficacy test. These tests were conducted at Microconsult Inc. (Dallas, Tex.). In the procedure, formulations were tested against the following microorganisms: Escherichia coli, Staphylococcus aureus, Pseudomonas aeruginosa, Candida albicans, and Aspergillus niger. The three bacterial strains were inoculated together at a total concentration of ˜10^5 cfu/mL, and the two fungi were inoculated together at a total concentration of ˜10^5 cfu/mL. Samples were incubated for 7 days at room temperature (25° C.), and the total bacterial and fungal counts were measured using a colony counter. The log reduction (LR) values for the bacterial and fungal counts were calculated as log (initial count/final count).
(§4) In the unmodified USP/EP preservative efficacy tests, each microorganism is tested separately at a concentration of ˜10^5 cfu/mL. […] The preservative efficacy test was modified in this study to reduce the total sample requirement and cost per analysis. Although the bacterial and fungal strains were not tested individually at specified concentrations, by comparing the overall bacterial and fungal log reduction values with the regulatory requirements, an assessment is made of the efficacy of the preservative against these microorganisms.
(§5) The formulations were prepared by adding the preservatives at the desired concentrations as per the I-optimal design table (Table II), generated using the software Strategy (Experiment Strategies Foundation & Process Builder, Inc.). All samples were incubated at 37° C. for 9 weeks. Because protein aggregation was known to be the primary degradation pathway, protein stability was examined by SEC and right-angle light scattering to monitor the formation of soluble and insoluble aggregates, respectively, and by UV spectroscopy to monitor changes in the protein concentration. The biological activity of the samples was assessed after 1 month at 37° C. Furthermore, to assess the antimicrobial efficacy of the formulations, samples were examined by the preservative screening test at the initial time point. Samples were incubated at room temperature, and the aerobic plate counts were measured based on the minimum requirements of the USP and BP/EP preservative efficacy tests at 24 hours, 7 days, and 14 days.

[6] = tested on: Candida albicans, and Aspergillus niger; test: Preservative screening test (modified USP/EP preservative efficacy test), fungi; assay type: cell-based; conditions: for Fungi × 10^5 (cfu/mL): 1 week at 25 ° C., total fungal count 2.84 × 10^5 cfu/mL
Procedure: as §3, §4, §5

[7] = tested on: Escherichia coli, Staphylococcus aureus, Pseudomonas aeruginosa, Candida albicans, and Aspergillus niger; test: USP and EP/BP preservative efficacy tests; assay type: cell-based; conditions: 0.75% benzyl alcohol
Procedure: as §4
The antimicrobial efficacy of the preservative was monitored by the USP and EP/BP preservative efficacy tests.

[8] = tested on: formulated humanized monoclonal antibody; test: Stability and bioactivity of the protein formulated with 0.75% benzyl alcohol, monitored over time; assay type: physicochemical
[9] = preservative 0.5%, listed as benzyl alcohol
[10] = main effect of the preservative (bi)
[11] = preservative 0.75%, listed as benzyl alcohol
[12] = quadratic term of one preservative (bii)
[13] = single preservative, 0.75% benzyl alcohol

antibody precipitation ([1]; benzyl alcohol at high concentration such as 1.0%): causes antibody precipitation | Visual analysis ([1]; preservative 0.5%): Clear | Visual analysis [1, 9]: clear | Visual analysis ([1]; preservative 1.0%): Slightly cloudy | aggregation (in words) ([2]; benzyl alcohol at high concentrations (≧1.0%)): caused significant aggregation | Monomer (%) ([2]; preservative 0.1%): 97.65% | Monomer (%) ([2]; preservative 0.5%): 93.92% | Percent monomer (by SEC) ([2]; preservative 0.5%): 92.3% | Percent monomer (by SEC) [2, 9]: ~92% | Monomer (%) ([2]; preservative 0.75%): 87.97% | Percent monomer (by SEC) ([2]; preservative 1.0%): 13.4% | Tm (by DSC) ([3]; preservative 0.5%): 78.5 °C | Tm (by DSC) ([3]; preservative 1.0%): 75.8 °C | Tm (by DSC) ([3]; preservative 2%): 72.3 °C
Compound: OCc1ccccc1 [Benzyl alcohol, benzyl alcohol]
Visual analysis ([1]; preservative 2%): caused sample precipitation; also recorded: Precipitated | Stability by SEC (in words) ([2]; 7 days at 45° C.): unstable due to the formation of soluble aggregates | Potency (%) ([4]; preservative 0.1%): 81% | Potency (%) ([4]; preservative 0.5%): 75% | Potency (%) ([4]; preservative 0.75%): 74% | antimicrobial efficacy against bacteria (regression analysis, in words) ([5]; I-optimal design, 14 days at room temperature): statistically significant antimicrobial efficacy | b-coefficient, Bacterial LR [5, 10]: 1.04 ± 0.05 | Bacterial × 10^4 (cfu/mL) ([5]; preservative 0.1%): TNTC | Bacterial × 10^4 (cfu/mL) ([5]; preservative 0.5%): 0 × 10^4 cfu/mL | Bacterial × 10^4 (cfu/mL) [5, 9]: complete kill | Bacterial × 10^4 (cfu/mL) ([5]; preservative 0.75%): 0 × 10^4 cfu/mL | Bacterial × 10^4 (cfu/mL) [5, 11]: complete kill | b-coefficient, Bacterial LR [5, 12]: −0.68 ± 0.11 | log reduction value predicted by simulation, bacteria [5, 13]: 4.8 | antimicrobial efficacy against fungi (in words) ([6]; 7 days, at least 0.5% benzyl alcohol, parabens and chlorobutanol at their highest concentration): satisfactory | b-coefficient, Fungal LR [6, 10]: 0.51 | Fungi × 10^5 (cfu/mL) ([6]; preservative 0.1%): 12 × 10^5 cfu/mL | Fungi × 10^5 (cfu/mL) ([6]; preservative 0.5%): 0 × 10^5 cfu/mL | Fungi × 10^5 (cfu/mL) [6, 9]: complete kill | Fungi × 10^5 (cfu/mL) ([6]; preservative 0.75%): 0 × 10^5 cfu/mL | Fungi × 10^5 (cfu/mL) [6, 11]: complete kill | b-coefficient, Fungal LR [6, 12]: −0.46 | log reduction value predicted by simulation, fungi [6, 13]: 3.7 | USP and EP/BP regulatory requirements [7]: USP and EP/BP (criterion B only) regulatory requirements were satisfied | protein stability compared with the control formulation [8]: comparable to that of the control formulation
